Data as given in patent US20080090734A1, “DRUG SCREENING AND TARGET IDENTIFICATION USING SPR IMAGING OF TARGET PROTEIN ARRAYS” (The Trustees of California State University, priority 2006, published 2008).

Columns and labels:
Test in all cases: Antibiotic susceptibility profile
Type in all cases: cell-based, Acinetobacter baumannii
Set-up in all cases: key: Resistance; Intermediate; Susceptible
[1] = test system: A. baumannii clinical isolate LAC 01
Text: (§1) We obtained over thirty clinical isolates of A. baumannii from nosocomial infections in New York City and Los Angeles. […] Only antibiotics with breakpoints for A. baumannii were used. […] Isolates LA 01 to 20 were acquired from Los Angels County while NY-A to NY-H were obtained from New York City.
(§2) Antibiotic susceptibility profiles of clinical isolates of A. baumannii and reference strains. R, I, and S denote Resistance, Intermediate and Susceptible, respectively. Genetic Profiling of Clinical Isolates of A. baumannii

[2] = test system: A. baumannii clinical isolate LAC 02
Text: as §1, §2

[3] = test system: A. baumannii clinical isolate LAC 03
Text: as §1, §2

[4] = test system: A. baumannii clinical isolate LAC 04
Text: as §1, §2

[5] = test system: A. baumannii clinical isolate LAC 05
Text: as §1, §2

[6] = test system: A. baumannii clinical isolate LAC 06
Text: as §1, §2

[7] = test system: A. baumannii clinical isolate LAC 07
Text: as §1, §2

[8] = test system: A. baumannii clinical isolate LAC 08
Text: as §1, §2

[9] = test system: A. baumannii clinical isolate LAC 09
Text: as §1, §2

[10] = test system: A. baumannii clinical isolate LAC 10
Text: as §1, §2

[11] = test system: A. baumannii clinical isolate LAC 11
Text: as §1, §2

[12] = test system: A. baumannii clinical isolate LAC 12
Text: as §1, §2

[13] = test system: A. baumannii clinical isolate LAC 13
Text: as §1, §2

[14] = test system: A. baumannii clinical isolate LAC 14
Text: as §1, §2

[15] = test system: A. baumannii clinical isolate LAC 15
Text: as §1, §2

[16] = test system: A. baumannii clinical isolate LAC 16
Text: as §1, §2

[17] = test system: A. baumannii clinical isolate LAC 17
Text: as §1, §2

[18] = test system: A. baumannii clinical isolate LAC 18
Text: as §1, §2

[19] = test system: A. baumannii clinical isolate LAC 19
Text: as §1, §2

[20] = test system: A. baumannii clinical isolate LAC 20
Text: as §1, §2

[21] = test system: A. baumannii clinical isolate NY A
Text: as §1, §2

[22] = test system: A. baumannii clinical isolate NY B
Text: as §1, §2

[23] = test system: A. baumannii clinical isolate NY C
Text: as §1, §2

[24] = test system: A. baumannii clinical isolate NY D
Text: as §1, §2

[25] = test system: A. baumannii clinical isolate NY E
Text: as §1, §2

[26] = test system: A. baumannii clinical isolate NY F
Text: as §1, §2

[27] = test system: A. baumannii clinical isolate NY G
Text: as §1, §2

[28] = test system: A. baumannii clinical isolate NY H
Text: as §1, §2

[29] = test system: A. baumannii reference strain 15839; conditions: strain 15839 (ATCC)
Text: as §1, §2

[30] = test system: A. baumannii reference strain 17978; conditions: strain 17978 (ATCC)
Text: as §1, §2

[31] = test system: A. baumannii reference strain 19606; conditions: strain 19606 (ATCC)
Text: as §1, §2

[32] = test system: A. baumannii reference strain AYE
Text: as §1, §2

[33] = test system: A. baumannii reference strain SDF
Text: as §1, §2

SMILES | Antibiotic susceptibility [1] | Antibiotic susceptibility [2] | Antibiotic susceptibility [3] | Antibiotic susceptibility [4] | Antibiotic susceptibility [5] | Antibiotic susceptibility [6] | Antibiotic susceptibility [7] | Antibiotic susceptibility [8] | Antibiotic susceptibility [9] | Antibiotic susceptibility [10] | Antibiotic susceptibility [11] | Antibiotic susceptibility [12] | Antibiotic susceptibility [13] | Antibiotic susceptibility [14] | Antibiotic susceptibility [15] | Antibiotic susceptibility [16] | Antibiotic susceptibility [17] | Antibiotic susceptibility [18] | Antibiotic susceptibility [19] | Antibiotic susceptibility [20] | further results
NCC[C@H](O)C(=O)N[C@@H]1C[C@H](N)[C@@H](O[C@H]2O[C@H](CN)[C@@H](O)[C@H](O)[C@H]2O)[C@H](O)[C@H]1O[C@H]1O[C@H](CO)[C@@H](O)[C@H](N)[C@H]1O [AMK, Amikacin] | S | I | I | I | R | S | R | I | R | R | S | S | S | S | R | R | I | I | R | I | Antibiotic susceptibility [21]: I; Antibiotic susceptibility [22]: I; Antibiotic susceptibility [23]: R; Antibiotic susceptibility [24]: R; Antibiotic susceptibility [25]: S; Antibiotic susceptibility [26]: R; Antibiotic susceptibility [27]: S; Antibiotic susceptibility [28]: R; Antibiotic susceptibility [29]: R; Antibiotic susceptibility [30]: S; Antibiotic susceptibility [31]: S; Antibiotic susceptibility [32]: R; Antibiotic susceptibility [33]: S
NC[C@H]1O[C@H](O[C@H]2[C@H](O)[C@@H](O[C@H]3O[C@H](CO)[C@@H](O)[C@H](N)[C@H]3O)[C@H](N)C[C@@H]2N)[C@H](N)C[C@@H]1O [TOB, Tobramycin] | R | R | R | R | R | S | R | R | R | R | S | S | S | S | S | R | R | R | R | R | Antibiotic susceptibility [21]: R; Antibiotic susceptibility [22]: R; Antibiotic susceptibility [23]: R; Antibiotic susceptibility [24]: R; Antibiotic susceptibility [25]: R; Antibiotic susceptibility [26]: R; Antibiotic susceptibility [27]: I; Antibiotic susceptibility [28]: R; Antibiotic susceptibility [29]: R; Antibiotic susceptibility [30]: S; Antibiotic susceptibility [31]: S; Antibiotic susceptibility [32]: R; Antibiotic susceptibility [33]: S
C[C@@H](O)[C@H]1C(=O)N2C(C(=O)O)=C(S[C@@H]3CN[C@H](C(=O)N(C)C)C3)[C@H](C)[C@H]12 [MEM, Meropenem] | R | R | I | S | S | S | R | S | R | R | R | S | S | S | R | S | S | S | R | I | Antibiotic susceptibility [21]: R; Antibiotic susceptibility [22]: R; Antibiotic susceptibility [23]: R; Antibiotic susceptibility [24]: R; Antibiotic susceptibility [25]: R; Antibiotic susceptibility [26]: R; Antibiotic susceptibility [27]: R; Antibiotic susceptibility [28]: R; Antibiotic susceptibility [29]: S; Antibiotic susceptibility [30]: S; Antibiotic susceptibility [31]: S; Antibiotic susceptibility [32]: S; Antibiotic susceptibility [33]: S
CO/N=C(\C(=O)N[C@@H]1C(=O)N2C(C(=O)O)=C(CSc3nc(=O)c(=O)[nH]n3C)CS[C@H]12)c1csc(N)n1 [CRO, Ceftriaxone] | R | R | R | R | I | R | R | I | R | R | R | R | R | R | R | R | R | R | R | R | Antibiotic susceptibility [21]: R; Antibiotic susceptibility [22]: R; Antibiotic susceptibility [23]: R; Antibiotic susceptibility [24]: R; Antibiotic susceptibility [25]: I; Antibiotic susceptibility [26]: R; Antibiotic susceptibility [27]: R; Antibiotic susceptibility [28]: R; Antibiotic susceptibility [29]: R; Antibiotic susceptibility [30]: S; Antibiotic susceptibility [31]: I; Antibiotic susceptibility [32]: R; Antibiotic susceptibility [33]: I
